Measured values from ChEMBL document CHEMBL5523735 (J Med Chem, 2024).
In brackets after ≈: the same amount, converted by molar mass.

Columns and labels:
P2Y purinoceptor 14 = target: T1, P2Y purinoceptor 14 (Homo sapiens, UniProt Q15391); test: Antagonist activity at P2Y14R (unknown origin) stably expressed in HEK293 cells assessed as inhibition of forskolin-induced cAMP production by cAMP-Glo assay; format: functional, cell-based
T1 sequence (Q15391 whole entry): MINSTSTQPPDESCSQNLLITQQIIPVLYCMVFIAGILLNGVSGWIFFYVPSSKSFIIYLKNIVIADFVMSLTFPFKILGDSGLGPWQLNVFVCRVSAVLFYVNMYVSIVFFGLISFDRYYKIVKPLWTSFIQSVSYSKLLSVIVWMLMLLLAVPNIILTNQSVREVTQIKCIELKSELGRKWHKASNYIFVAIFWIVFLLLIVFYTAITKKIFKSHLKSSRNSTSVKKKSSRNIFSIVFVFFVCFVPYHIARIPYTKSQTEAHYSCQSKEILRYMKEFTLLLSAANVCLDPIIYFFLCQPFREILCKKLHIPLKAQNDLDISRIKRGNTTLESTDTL

[1] = target: T2, P2Y purinoceptor 14 (Homo sapiens) (UniProt Q15391)
T2 sequence (whole entry): T1 sequence (Q15391 whole entry)
Description: Antagonist activity at P2Y14R (unknown origin) stably expressed in HEK293 cells assessed as inhibition of forskolin-induced cAMP production at 100 nM by cAMP-Glo assay relative to control

P2Y purinoceptor 4 = P2Y purinoceptor 4 (Homo sapiens, UniProt P51582); test: Inhibition of P2Y4R (unknown origin) expressed in HEK293 cells assessed as decrease in IP3 production; format: functional, cell-based
Sequence of P2Y purinoceptor 4 (P51582 whole entry): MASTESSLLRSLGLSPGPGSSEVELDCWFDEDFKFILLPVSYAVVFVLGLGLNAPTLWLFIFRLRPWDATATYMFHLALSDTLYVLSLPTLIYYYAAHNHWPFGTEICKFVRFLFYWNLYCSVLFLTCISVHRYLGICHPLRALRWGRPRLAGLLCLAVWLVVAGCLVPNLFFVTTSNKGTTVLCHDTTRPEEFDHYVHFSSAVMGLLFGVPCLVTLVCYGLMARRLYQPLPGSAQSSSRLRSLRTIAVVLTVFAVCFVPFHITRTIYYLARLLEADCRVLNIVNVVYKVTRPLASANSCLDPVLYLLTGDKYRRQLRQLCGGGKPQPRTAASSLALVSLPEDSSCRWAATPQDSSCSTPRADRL

[2] = Aqueous solubility of compound in SGF at pH 1.2 by spectrometry; format: ADME
[3] = Aqueous solubility of compound in double distilled water at pH 7 by spectrometry; format: physicochemical; settings: buffer
[4] = Aqueous solubility of compound in PBS at pH 7.4 by spectrometry; format: physicochemical; settings: buffer
[5] = Aqueous solubility of compound in SIF at pH 6.8 by spectrometry; format: ADME; settings: simulated gi fluid
P2Y purinoceptor 12 = P2Y purinoceptor 12 (Homo sapiens, UniProt Q9H244); test: Inhibition of P2Y12R (unknown origin) expressed in HEK293 cells assessed as restoration of cAMP reduction; format: functional, cell-based
Sequence of P2Y purinoceptor 12 (Q9H244 whole entry): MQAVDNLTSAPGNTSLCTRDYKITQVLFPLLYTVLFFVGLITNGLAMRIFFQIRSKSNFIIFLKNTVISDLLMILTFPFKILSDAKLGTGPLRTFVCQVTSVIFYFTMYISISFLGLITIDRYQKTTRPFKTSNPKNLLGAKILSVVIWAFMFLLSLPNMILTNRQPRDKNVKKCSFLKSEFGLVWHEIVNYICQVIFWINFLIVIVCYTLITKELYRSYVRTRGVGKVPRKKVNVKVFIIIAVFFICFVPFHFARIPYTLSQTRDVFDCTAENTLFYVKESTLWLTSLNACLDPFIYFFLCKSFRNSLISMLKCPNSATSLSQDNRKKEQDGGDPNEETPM

P2Y purinoceptor 6 = P2Y purinoceptor 6 (Homo sapiens, UniProt Q15077); test: Inhibition of P2Y6R (unknown origin) expressed in HEK293 cells assessed as decrease in IP3 reduction
Sequence of P2Y purinoceptor 6 (Q15077 whole entry): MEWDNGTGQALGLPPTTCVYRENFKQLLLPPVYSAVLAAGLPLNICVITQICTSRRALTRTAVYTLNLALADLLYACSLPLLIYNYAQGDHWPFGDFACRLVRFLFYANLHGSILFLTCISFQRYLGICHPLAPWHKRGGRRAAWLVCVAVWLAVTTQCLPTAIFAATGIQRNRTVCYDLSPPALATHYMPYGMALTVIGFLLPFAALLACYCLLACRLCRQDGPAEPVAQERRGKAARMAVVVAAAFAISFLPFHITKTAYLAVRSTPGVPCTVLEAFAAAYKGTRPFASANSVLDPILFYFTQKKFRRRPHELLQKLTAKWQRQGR

[6] = Metabolic stability in human liver microsomes measured for 90 mins; format: ADME, Microsome; settings: 1.5 h
[7] = HEK293, filed as antagonist, dose 100.0 nM

| SMILES | IC50 (P2Y purinoceptor 14) | inhibition [1, 7] | other results |
| --- | --- | --- | --- |
| Cc1ccc(Sc2sc(C(=O)O)cc2NC(=O)c2ccc(C)cc2)cc1 | 6.53 nM | 88.4% | – |
| Cc1ccc(C(=O)Nc2cc(C(=O)O)sc2Oc2ccc(OC(F)(F)F)cc2)cc1 | – | – | inhibition ([1]; HEK293, dose 100.0 nM): 32.7% |
| Cc1ccc(C(=O)Nc2cc(C(=O)O)sc2Oc2ccccc2F)cc1 | 104 nM | 66% | – |
| Cc1ccc(Oc2sc(C(=O)O)cc2NC(=O)c2ccc(C(C)(C)C)cc2)cn1 | – | – | inhibition ([1]; HEK293, dose 100.0 nM): 12.2% |
| Cc1ccc(C(=O)Nc2cc(C(=O)O)sc2Oc2cccc(C(F)(F)F)c2)cc1 | – | 52.8% | – |
| Cc1ccc(C(=O)Nc2cc(C(=O)O)sc2Oc2ccc(S(C)(=O)=O)cc2)cc1 | – | 62.8% | – |
| Cc1ccc(Oc2sc(C(=O)O)cc2NC(=O)c2ccc(F)cc2)cn1 | – | 46.6% | – |
| Cc1ccc(Oc2sc(C(=O)O)cc2NC(=O)c2ccc(N(C)C)cc2)cn1 | – | 40.8% | – |
| Cc1ccc(Oc2sc(C(=O)O)cc2NC(=O)c2ccc(C)cc2)cc1 | 4.01 nM | 97.4% | – |
| Cc1ccc(Oc2sc(C(=O)O)cc2NC(=O)c2cnn(C)c2)cn1 | – | 42.8% | – |
| Cc1ccc(C(=O)Nc2cc(C(=O)O)sc2Oc2cccnc2)cc1 | – | 62% | – |
| Cc1ccc(Oc2sc(C(=O)O)cc2NC(=O)c2ccc(C(F)(F)F)cc2)cn1 | – | – | inhibition ([1]; HEK293, dose 100.0 nM): 39.7% |
| Cc1ccc(C(=O)Nc2cc(C(=O)O)sc2Oc2ccc(Cl)cc2)cc1 | – | – | inhibition ([1]; HEK293, dose 100.0 nM): 39.9% |
| Cc1ccc(C(=O)Nc2cc(C(=O)O)sc2Oc2ccccc2Cl)cc1 | – | 40.4% | – |
| Cc1ccc(C(=O)Nc2cc(C(=O)O)sc2Oc2ccc(F)cc2)cc1 | 60.6 nM | 74.8% | – |
| Cc1ccc(C(=O)Nc2cc(C(=O)O)sc2Oc2ccc(C#N)cc2)cc1 | – | – | inhibition ([1]; HEK293, dose 100.0 nM): 16.2% |
| C#Cc1ccc(C(=O)Nc2cc(C(=O)O)sc2Oc2ccc(C)nc2)cc1 | 7.51 nM | 116% | – |
| Cc1ccc(C(=O)Nc2cc(C(=O)O)sc2Oc2ccc(C(=O)O)cc2)cc1 | – | 44.1% | – |
| Cc1ccc(Oc2sc(C(=O)O)cc2NC(=O)c2ccc(C)nc2)cn1 | – | – | inhibition ([1]; HEK293, dose 100.0 nM): 30.3% |
| Cc1ccc(Oc2sc(C(=O)O)cc2NC(=O)c2ccc(Cl)cc2)cn1 | – | – | inhibition ([1]; HEK293, dose 100.0 nM): 21% |

| SMILES | IC50 (P2Y purinoceptor 14) | inhibition [1, 7] | other results |
| --- | --- | --- | --- |
| O=C(C1CC1)N1CCc2cc(Br)c(S(=O)(=O)Nc3ccc(C(F)(F)F)c(Cl)c3)cc21 | – | – | IC50 (P2Y purinoceptor 4): 13000 nM |
| Cc1ccc(Oc2sc(C(=O)O)cc2NC(=O)c2ccc(C(C)C)cc2)cn1 | – | 44.3% | – |
| Cc1ccc(C(=O)Nc2cc(C(=O)O)sc2Oc2ccc(C(F)(F)F)cc2)cc1 | – | 62.6% | – |
| COc1cccc(Oc2sc(C(=O)O)cc2NC(=O)c2ccc(C)cc2)c1 | – | 63.2% | – |
| CCc1ccc(Oc2sc(C(=O)O)cc2NC(=O)c2ccc(C)cc2)cc1 | 81.3 nM | 67.4% | – |
| Cc1ccc(C(=O)Nc2cc(C(=O)O)sc2Oc2ccc(C)cn2)cc1 | 0.55 nM | 90.6% | solubility ([2]; SGF, read-out: solubility): 0.03 µg/mL (≈ 0.0814 µM); solubility [3]: 0.039 µg/mL (≈ 0.106 µM); solubility [4]: 1.7 µg/mL (≈ 4.61 µM); solubility [5]: 0.109 µg/mL (≈ 0.296 µM) |
| Cc1ccc(C(=O)Nc2cc(C(=O)O)sc2Oc2ccncc2)cc1 | – | 43.5% | – |
| Cc1ccc(C(=O)Nc2cc(C(=O)O)sc2Oc2ccsn2)cc1 | – | 60.3% | – |
| Cc1ccc(C(=O)Nc2cc(C(=O)O)sc2Oc2ccccc2C(F)(F)F)cc1 | – | 57.1% | – |
| Cc1ccc(C(=O)Nc2cc(C(=O)O)sc2Oc2ccccc2)cc1 | – | 42.3% | – |
| Cc1ccc(C(=O)Nc2cc(C(=O)O)sc2Oc2ccc(F)nc2)cc1 | 17.6 nM | 83.4% | solubility ([2]; SGF, read-out: solubility): 0.036 µg/mL (≈ 0.0967 µM); solubility [3]: 0.041 µg/mL (≈ 0.11 µM); solubility [4]: 3.253 µg/mL (≈ 8.74 µM); solubility [5]: 1.202 µg/mL (≈ 3.23 µM) |
| Cc1ccc(Oc2sc(C(=O)O)cc2NC(=O)c2cnc(C)nc2)cn1 | 3130 nM | 83.9% | – |
| O=C(CCCNC(=S)Nc1ccc2c(c1)C(=O)OC21c2ccc(O)cc2Oc2cc(O)ccc21)NCCCC(=O)N1CCC(c2ccc(-c3cc(C(=O)O)cc4cc(-c5ccc(C(F)(F)F)cc5)ccc34)cc2)CC1 | 1.52 nM | – | – |
| CC(=O)Nc1ccc(Oc2sc(C(=O)O)cc2NC(=O)c2ccc(C)cc2)cc1 | 18600 nM | 66% | – |
| CC(=O)c1ccc(Oc2sc(C(=O)O)cc2NC(=O)c2ccc(C)cc2)cc1 | – | – | inhibition ([1]; HEK293, dose 100.0 nM): 34.5% |
| Cc1ccc(C(=O)Nc2cc(C(=O)O)sc2Oc2cccc(C)c2)cc1 | – | 55.8% | – |
| Cc1ccc(Nc2sc(C(=O)O)cc2NC(=O)c2ccc(C)cc2)cc1 | – | 41.7% | – |
| COc1ccc(Oc2sc(C(=O)O)cc2NC(=O)c2ccc(C)cc2)cc1 | 24500 nM | 69.8% | – |
| CCCc1ccc(Oc2sc(C(=O)O)cc2NC(=O)c2ccc(C)cc2)cc1 | 124 nM | 66.3% | – |
| Cc1ccc(C(=O)Nc2cc(C(=O)O)cc(-c3ccoc3)c2)cc1 | – | – | solubility ([2]; simulated gi fluid): 0.069 µg/mL (≈ 0.215 µM); solubility [3]: 0.078 µg/mL (≈ 0.243 µM); solubility [4]: 0.878 µg/mL (≈ 2.73 µM); solubility [5]: 0.471 µg/mL (≈ 1.47 µM) |

| SMILES | IC50 (P2Y purinoceptor 14) | inhibition [1, 7] | other results |
| --- | --- | --- | --- |
| CCCc1ccc(C(=O)Nc2cc(C(=O)O)sc2Oc2ccc(C)nc2)cc1 | – | 44.3% | – |
| Cc1ccc(C(=O)Nc2cc(C(=O)O)sc2Oc2ccccn2)cc1 | 1690 nM | 74.9% | – |
| Cc1ccc(Oc2sc(C(=O)O)cc2NC(=O)c2cnc(C)cn2)cn1 | 1060 nM | 71% | – |
| O=C(O)c1cc(-c2ccc(C3CCNCC3)cc2)c2ccc(-c3ccc(C(F)(F)F)cc3)cc2c1 [PPTN] | – | – | solubility ([2]; SGF, read-out: solubility): < 0.005 µg/mL; solubility [3]: < 0.005 µg/mL; solubility [4]: < 0.005 µg/mL; solubility [5]: < 0.005 µg/mL |
| COc1ccccc1Oc1sc(C(=O)O)cc1NC(=O)c1ccc(C)cc1 | – | 48.1% | – |
| Cc1ccc(Oc2sc(C(=O)O)cc2NC(=O)c2ccccc2)cn1 | 13 nM | 81.9% | – |
| Cc1ccc(C(=O)Nc2cc(C(=O)O)sc2Oc2ccccc2C)cc1 | – | 45.8% | – |
| CCc1ccc(C(=O)Nc2cc(C(=O)O)sc2Oc2ccc(C)nc2)cc1 | – | 59.8% | – |
| Cc1ccc(Oc2sc(C(=O)O)cc2NC(=O)c2ccc(C#N)cc2)cn1 | – | – | inhibition ([1]; HEK293, dose 100.0 nM): 33% |
| Cc1ccc(C(=O)Nc2cc(C(=O)O)sc2Oc2ccc(C)nc2)nc1 | – | 60.1% | – |
| Cc1ccc(C(=O)Nc2cc(C(=O)O)sc2Oc2ccc(C)nc2)cc1 | 6.53 nM | 99.4% | solubility ([2]; SGF, read-out: solubility): 0.844 µg/mL (≈ 2.29 µM); solubility [3]: 0.067 µg/mL (≈ 0.182 µM); solubility [4]: 2.37 µg/mL (≈ 6.43 µM); solubility [5]: 0.189 µg/mL (≈ 0.513 µM) |
| CCCSc1nc(N[C@@H]2C[C@H]2c2ccc(F)c(F)c2)c2nnn([C@@H]3C[C@H](OCCO)[C@@H](O)[C@H]3O)c2n1 [TICAGRELOR] | – | – | IC50 (P2Y purinoceptor 12): 1280 nM |
| Cc1ccc(C(=O)Nc2cc(C(=O)O)sc2Oc2cccc(F)c2)cc1 | 87.7 nM | 69.6% | – |
| S=C=Nc1cccc(NC(=S)NCCCCNC(=S)Nc2cccc(N=C=S)c2)c1 | – | – | IC50 (P2Y purinoceptor 6): 23.4 nM |
| Cc1ccc(C(=O)Nc2cc(C(=O)O)sc2Oc2ccc(C(C)(C)C)cc2)cc1 | – | 54.4% | – |
| COc1ccc(C(=O)Nc2cc(C(=O)O)sc2Oc2ccc(C)nc2)cc1 | 1.29 nM | 112% | Stability [6]: Stable; solubility ([2]; SGF, read-out: solubility): 2.26 µg/mL (≈ 5.88 µM); solubility [3]: 0.063 µg/mL (≈ 0.164 µM); solubility [4]: 2.33 µg/mL (≈ 6.06 µM); solubility [5]: 0.423 µg/mL (≈ 1.1 µM) |
| Cc1ccc(C(=O)Nc2cc(C(=O)O)sc2Oc2cccc(Cl)c2)cc1 | – | – | inhibition ([1]; HEK293, dose 100.0 nM): 36.2% |
| Cc1ccc(C(=O)Nc2cc(C(=O)O)sc2Oc2ccc(C(C)C)cc2)cc1 | – | 54.3% | – |
| Cc1ccc(C(=O)Nc2cc(C(=O)O)nn2Cc2ccc(F)cc2)cc1 | – | – | solubility ([2]; simulated gi fluid): 0.085 µg/mL (≈ 0.241 µM); solubility [3]: 0.088 µg/mL (≈ 0.249 µM); solubility [4]: 0.318 µg/mL (≈ 0.9 µM); solubility [5]: 0.203 µg/mL (≈ 0.574 µM) |
